The record followed here is patent US20150065499A1, “3-AMINOTHIENO[3,2-c]QUINOLINE DERIVATIVES, METHODS OF PREPARATION AND USES” (TEMPLE UNIVERSITY - OF THE COMMONWEALTH SYSTEM OF HIGHER …, priority 2012, published 2015).

Data set [1] concerns K562 (chronic myelogenous leukemia; leukemia cell line +ve for Bcr-Abl). The data set can be described thus: Cancer cell assay, K562 tumor cells, viable cells after 96 hours. It is filed as cell-based. As to conditions: Homo sapiens, 96 hours after treatment, called IC50. As to the method: (§1) The effect of the compounds of the invention on tumor cells was determined by the assay described by Latham et al., Oncogene 12:827-837 (1996). Tumor cells K562 (chronic myelogenous leukemia; leukemia cell line +ve for Bcr-Abl) or DU145 (prostate cancer) were plated in 12-well dishes at a cell density of 2.5×10^4 cells well. The plated cells were treated 24 hours later with a compound of the invention dissolved in DMSO at multiple concentrations ranging from 0.01 μM to 100 μM. The plates were examined 96 hours later under an inverted microscope, Olympus CK-2 using a 10× objective, and compound activity was noted by physical observation. When necessary, the total number of viable cells was determined by trypsinizing the wells and counting the number of viable cells, as determined by trypan blue exclusion, using a hemacytometer.

In data set [2] the test system is DU145 (prostate cancer). The data set can be described thus: Cancer cell assay, DU145 tumor cells, viable cells after 96 hours. The format is cell-based. As to conditions: Homo sapiens, DU-145, 96 hours after treatment, called IC50. As to the method:
as §1

The target in data set [3] is T1, Human PI3Kα (p110α/p85α) (Homo sapiens, UniProt P42336).
T1 construct: N-terminal GST-tagged recombinant full-length human p110α; GST (N); host or cells: Baculovirus infected Sf9 cells
T1 sequence (P42336 whole entry): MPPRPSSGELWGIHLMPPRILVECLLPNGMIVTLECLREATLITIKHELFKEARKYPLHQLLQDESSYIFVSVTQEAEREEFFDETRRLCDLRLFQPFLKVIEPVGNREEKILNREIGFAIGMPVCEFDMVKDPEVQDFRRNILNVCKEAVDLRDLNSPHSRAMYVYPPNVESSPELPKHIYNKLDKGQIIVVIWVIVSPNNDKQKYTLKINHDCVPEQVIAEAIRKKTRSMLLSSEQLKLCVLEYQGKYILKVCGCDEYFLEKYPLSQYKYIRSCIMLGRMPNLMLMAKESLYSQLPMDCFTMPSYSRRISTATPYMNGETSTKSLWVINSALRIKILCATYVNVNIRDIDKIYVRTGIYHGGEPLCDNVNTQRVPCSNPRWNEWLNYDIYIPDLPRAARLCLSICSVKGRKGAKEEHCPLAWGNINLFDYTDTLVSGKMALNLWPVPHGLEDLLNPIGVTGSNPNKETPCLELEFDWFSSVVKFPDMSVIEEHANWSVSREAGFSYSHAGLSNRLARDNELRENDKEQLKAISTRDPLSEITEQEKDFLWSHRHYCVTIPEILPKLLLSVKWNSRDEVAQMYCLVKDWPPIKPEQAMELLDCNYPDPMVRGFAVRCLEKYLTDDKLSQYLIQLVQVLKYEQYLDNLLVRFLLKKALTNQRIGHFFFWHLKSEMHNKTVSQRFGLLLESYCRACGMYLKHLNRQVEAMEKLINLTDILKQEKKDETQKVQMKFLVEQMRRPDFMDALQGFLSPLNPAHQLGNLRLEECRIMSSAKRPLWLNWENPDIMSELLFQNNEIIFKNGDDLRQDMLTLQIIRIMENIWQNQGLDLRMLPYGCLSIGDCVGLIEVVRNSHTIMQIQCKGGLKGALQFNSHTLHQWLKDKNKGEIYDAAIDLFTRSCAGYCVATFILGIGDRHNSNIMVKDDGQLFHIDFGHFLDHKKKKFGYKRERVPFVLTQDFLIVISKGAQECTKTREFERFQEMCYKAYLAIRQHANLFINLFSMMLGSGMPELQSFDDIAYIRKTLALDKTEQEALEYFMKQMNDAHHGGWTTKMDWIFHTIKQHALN
T1 sequence (P27986 whole entry partner): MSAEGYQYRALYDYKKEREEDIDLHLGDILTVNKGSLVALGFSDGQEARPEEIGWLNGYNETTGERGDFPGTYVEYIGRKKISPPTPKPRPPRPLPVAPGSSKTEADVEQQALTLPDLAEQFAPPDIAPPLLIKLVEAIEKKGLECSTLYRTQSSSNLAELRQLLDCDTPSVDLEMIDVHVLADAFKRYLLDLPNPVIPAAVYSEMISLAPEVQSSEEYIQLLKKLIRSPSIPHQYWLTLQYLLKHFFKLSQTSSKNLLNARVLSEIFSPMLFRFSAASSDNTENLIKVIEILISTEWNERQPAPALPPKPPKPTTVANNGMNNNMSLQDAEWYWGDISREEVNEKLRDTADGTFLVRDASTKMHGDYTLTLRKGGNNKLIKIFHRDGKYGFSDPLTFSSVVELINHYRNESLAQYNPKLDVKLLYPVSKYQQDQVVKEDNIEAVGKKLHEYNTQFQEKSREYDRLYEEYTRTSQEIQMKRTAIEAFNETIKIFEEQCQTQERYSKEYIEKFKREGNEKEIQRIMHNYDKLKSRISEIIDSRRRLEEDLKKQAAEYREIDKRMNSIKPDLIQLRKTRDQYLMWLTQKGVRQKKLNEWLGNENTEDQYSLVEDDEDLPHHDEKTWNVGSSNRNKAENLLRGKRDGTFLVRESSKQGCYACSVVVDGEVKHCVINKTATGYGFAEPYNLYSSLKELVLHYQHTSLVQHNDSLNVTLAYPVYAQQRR
The data set can be described thus: PI3K isoform HTRF enzyme assay, PI3Kα. It is filed as biochemical. As to the method: (§2) The compound of Example 18, methyl 3-(4-fluorobenzamido)-7,8-dimethoxythieno[3,2-c]quinoline-2-carboxylate, was tested for ability to inhibit the four PI3K isoforms PI3Kα, PI3Kβ, PI3Kδ and PI3Kγ in a homogeneous time-resolved fluorescence (HTRF) enzyme assay.
(§3) The assay relies on the action of the aforesaid kinases on the substrate phosphatidylinositol (4,5)-bisphosphate (PIP2), providing the product phosphatidylinositol (3,4,5)-trisphosphate (PIP3). The PIP3 product is detected by displacement of biotin-PIP3 from an energy transfer complex consisting of Europium labeled anti-GST monoclonal antibody, a GST-tagged pleckstrin homology (PH) domain, biotinylated PIP3 and Streptavidin-Allophycocyanin (APC). Excitation of Europium in the complex results in an energy transfer to the APC and a fluorescent emission at 665 nm. The PIP3 product formed by PI 3-kinase(h) activity displaces biotin-PIP3 from the complex resulting in a loss of energy transfer and thus a decrease in signal. […]
(§4) The enzymes (PI3Kα, PI3Kβ, PI3Kδ or PI3Kγ) were delivered into the following kinase reaction buffer containing 10 μM PIP2 substrate: HEPES 50 mM (pH7.0), NaN3 0.02%, BSA 0.01%, Orthovanadate 0.1 mM, 1% DMSO. […] Homogeneous time-resolved fluorescence (HTRF) was measured (Ex=320 nm, ratio of Em=615 nm and Em=665 nm). […]
(In TR-FRET formats the signal depends on donor and acceptor labels being close together.)

Data set [4] addresses T2, Human PI3Kβ (p110β/p85α) (Homo sapiens, UniProt P42338).
T2 construct: N-terminal 6His-tagged recombinant full-length human p110β; 6His (N); host or cells: Baculovirus infected Sf21 cells
Put plainly: PI3K isoform HTRF enzyme assay, PI3Kβ. The format is biochemical. Here is the method: as §2, §3, §4

For data set [5], the target named is T3, Human PI3Kγ (p120γ) (Homo sapiens, UniProt P48736).
T3 construct: His (N); host or cells: Baculovirus infected insect cells (printed 'SP)', probably a misprint of Sf9)
T3 sequence (P48736 whole entry): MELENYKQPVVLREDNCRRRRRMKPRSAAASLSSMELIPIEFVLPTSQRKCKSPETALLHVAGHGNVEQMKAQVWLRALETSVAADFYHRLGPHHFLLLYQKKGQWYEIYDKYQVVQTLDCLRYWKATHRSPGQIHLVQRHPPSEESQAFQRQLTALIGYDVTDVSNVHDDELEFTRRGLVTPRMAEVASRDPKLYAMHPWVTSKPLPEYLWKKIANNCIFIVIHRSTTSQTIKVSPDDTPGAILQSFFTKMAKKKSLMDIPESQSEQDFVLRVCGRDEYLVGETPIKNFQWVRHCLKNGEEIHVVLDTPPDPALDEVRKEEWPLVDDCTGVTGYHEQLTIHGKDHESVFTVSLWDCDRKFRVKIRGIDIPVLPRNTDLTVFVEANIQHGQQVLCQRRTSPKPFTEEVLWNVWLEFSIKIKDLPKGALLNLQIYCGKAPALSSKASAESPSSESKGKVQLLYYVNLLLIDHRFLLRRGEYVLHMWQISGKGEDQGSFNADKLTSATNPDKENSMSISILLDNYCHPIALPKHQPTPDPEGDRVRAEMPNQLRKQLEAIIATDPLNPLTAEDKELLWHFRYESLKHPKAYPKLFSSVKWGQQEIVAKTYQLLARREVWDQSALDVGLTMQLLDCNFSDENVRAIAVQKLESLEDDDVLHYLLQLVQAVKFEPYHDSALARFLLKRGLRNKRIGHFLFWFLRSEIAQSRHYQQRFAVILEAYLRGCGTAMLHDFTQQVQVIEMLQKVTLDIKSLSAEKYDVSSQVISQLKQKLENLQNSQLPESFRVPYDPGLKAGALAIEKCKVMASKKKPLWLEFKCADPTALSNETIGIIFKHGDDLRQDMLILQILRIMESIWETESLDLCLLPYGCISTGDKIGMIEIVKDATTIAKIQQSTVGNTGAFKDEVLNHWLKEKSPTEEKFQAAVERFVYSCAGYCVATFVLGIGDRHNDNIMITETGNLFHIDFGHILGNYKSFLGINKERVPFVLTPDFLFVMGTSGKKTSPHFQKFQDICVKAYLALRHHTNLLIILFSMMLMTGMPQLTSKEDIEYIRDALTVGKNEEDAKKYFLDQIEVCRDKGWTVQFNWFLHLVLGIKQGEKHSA
Put plainly: PI3K isoform HTRF enzyme assay, PI3Kγ. It is filed as biochemical. Here is the method:
as §2, §3, §4

Data set [6] addresses T4, Human PI3Kδ (p110δ/p85α) (Homo sapiens, UniProt O00329).
T4 construct: N-terminal GST tagged recombinant full-length human p110δ; GST (N); host or cells: Baculovirus infected Sf9 cells
Put plainly: PI3K isoform HTRF enzyme assay, PI3Kδ. The format is biochemical. The following applies: for IC50: 10 μM PIP2, 10 μM ATP, HTRF, read-out: IC50 against PI3Kδ. Here is the method:
as §2, §3, §4

Where two headings read alike, the source gives them in different places.

T4 sequence (O00329 whole entry): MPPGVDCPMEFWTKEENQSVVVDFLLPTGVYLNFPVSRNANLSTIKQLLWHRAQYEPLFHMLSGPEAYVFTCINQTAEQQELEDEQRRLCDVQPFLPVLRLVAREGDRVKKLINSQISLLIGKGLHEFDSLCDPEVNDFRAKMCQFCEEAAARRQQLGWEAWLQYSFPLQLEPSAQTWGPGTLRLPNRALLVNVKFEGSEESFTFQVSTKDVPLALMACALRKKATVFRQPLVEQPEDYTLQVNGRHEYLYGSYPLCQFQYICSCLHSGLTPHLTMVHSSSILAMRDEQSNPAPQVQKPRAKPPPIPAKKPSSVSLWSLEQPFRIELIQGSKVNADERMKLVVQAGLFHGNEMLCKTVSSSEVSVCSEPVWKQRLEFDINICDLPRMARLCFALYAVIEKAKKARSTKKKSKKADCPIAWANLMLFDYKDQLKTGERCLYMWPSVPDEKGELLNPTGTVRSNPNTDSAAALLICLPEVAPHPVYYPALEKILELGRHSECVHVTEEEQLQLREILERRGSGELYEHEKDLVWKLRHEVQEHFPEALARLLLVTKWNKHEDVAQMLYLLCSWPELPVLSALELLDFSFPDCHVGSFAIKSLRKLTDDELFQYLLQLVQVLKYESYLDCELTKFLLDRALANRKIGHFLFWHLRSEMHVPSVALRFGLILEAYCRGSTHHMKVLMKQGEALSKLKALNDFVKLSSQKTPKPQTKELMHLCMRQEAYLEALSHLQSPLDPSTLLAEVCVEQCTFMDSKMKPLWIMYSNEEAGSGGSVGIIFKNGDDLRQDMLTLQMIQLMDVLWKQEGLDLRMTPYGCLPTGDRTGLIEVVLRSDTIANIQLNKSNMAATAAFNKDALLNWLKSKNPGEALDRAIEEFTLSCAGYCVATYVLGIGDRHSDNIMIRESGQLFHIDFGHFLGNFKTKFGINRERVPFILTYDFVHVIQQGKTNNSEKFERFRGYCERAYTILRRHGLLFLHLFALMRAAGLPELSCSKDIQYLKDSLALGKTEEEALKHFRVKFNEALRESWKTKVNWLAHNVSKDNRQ
T4 sequence (P27986 whole entry partner): as the sequence (P27986 whole entry partner) above
T2 sequence (P42338 whole entry): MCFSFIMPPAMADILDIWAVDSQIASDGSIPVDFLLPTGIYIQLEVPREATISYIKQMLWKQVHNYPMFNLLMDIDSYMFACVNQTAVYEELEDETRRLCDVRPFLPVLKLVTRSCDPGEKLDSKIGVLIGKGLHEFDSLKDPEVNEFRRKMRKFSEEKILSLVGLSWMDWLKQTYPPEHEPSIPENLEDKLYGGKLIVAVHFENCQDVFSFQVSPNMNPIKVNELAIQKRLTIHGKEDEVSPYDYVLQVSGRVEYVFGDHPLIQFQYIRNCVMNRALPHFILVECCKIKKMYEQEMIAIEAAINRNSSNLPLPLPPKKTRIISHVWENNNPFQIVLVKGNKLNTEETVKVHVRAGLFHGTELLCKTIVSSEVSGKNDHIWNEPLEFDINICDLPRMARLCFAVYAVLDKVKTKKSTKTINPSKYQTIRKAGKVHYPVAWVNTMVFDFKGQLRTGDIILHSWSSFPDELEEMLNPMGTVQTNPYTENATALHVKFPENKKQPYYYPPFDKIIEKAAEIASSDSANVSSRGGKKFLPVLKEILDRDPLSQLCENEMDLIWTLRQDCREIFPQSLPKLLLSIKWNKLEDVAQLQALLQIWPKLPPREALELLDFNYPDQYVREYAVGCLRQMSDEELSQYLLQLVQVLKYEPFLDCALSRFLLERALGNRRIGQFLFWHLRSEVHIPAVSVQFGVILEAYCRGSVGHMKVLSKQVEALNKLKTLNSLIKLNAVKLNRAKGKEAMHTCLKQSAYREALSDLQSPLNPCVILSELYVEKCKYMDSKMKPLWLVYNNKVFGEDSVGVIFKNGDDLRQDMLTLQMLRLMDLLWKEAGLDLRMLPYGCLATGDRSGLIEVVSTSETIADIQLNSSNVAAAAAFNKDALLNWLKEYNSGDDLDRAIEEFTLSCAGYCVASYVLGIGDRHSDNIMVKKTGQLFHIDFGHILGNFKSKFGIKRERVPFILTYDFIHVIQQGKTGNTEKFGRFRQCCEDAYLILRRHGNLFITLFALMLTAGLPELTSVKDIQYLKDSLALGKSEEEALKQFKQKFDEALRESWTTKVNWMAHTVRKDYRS
T2 sequence (P27986 whole entry partner): as the sequence (P27986 whole entry partner) above

One may read the IC50 as the midpoint of a concentration-inhibition curve. What is called melting point is the temperature of the solid-liquid transition. `COC(=O)c1sc2c(cnc3cc(OC)c(OC)cc32)c1NC(=O)c1ccc(F)cc1` [Example 18, Methyl 3-(4-fluorobenzamido)-7,8-dimethoxythieno[3,2-c]quinoline-2-carboxylate] gave a melting point of 196 to 198 °C. The molecule further showed an IC50 in data set [1] of 0.15 µM. The half-maximal inhibitory concentration (IC50) in data set [2] is 2.5 µM. The half-inhibitory concentration (IC50) in data set [3] (10 μM PIP2, 10 μM ATP, HTRF, read-out: IC50 against PI3Kα) was found to be 25.3 µM. For the same molecule, in data set [3] (Table 2), the “inhibition of other isoforms of PI3K (PI3Kα), in words” value is on record as “does not inhibit”. Moreover, the IC50 in data set [4] (10 μM PIP2, 10 μM ATP, HTRF, read-out: IC50 against PI3Kβ) turned out to be 8.54 µM. The “inhibition of other isoforms of PI3K (PI3Kβ), in words” value in data set [4] (Table 2) is “does not inhibit”. Also, the half-inhibitory concentration (IC50) in data set [5] (10 μM PIP2, 10 μM ATP, HTRF, read-out: IC50 against PI3Kγ) came out at 1.01 µM. The concentration for half-maximal inhibition (IC50) in data set [5] (Table 2, read-out: IC50 against PI3Kγ isoform) was 1 µM. For the same molecule, in data set [5] (statement in description), the “selective inhibition of the activity of PI3Kγ, in words” value is given as “selectively inhibits”. Further, the half-inhibitory concentration (IC50) in data set [6] turned out to be 25.7 µM. For the same molecule, in data set [6] (Table 2), the “inhibition of other isoforms of PI3K (PI3Kδ), in words” value is reported as “does not inhibit”.

For the molecule `O=c1cc(N2CCOCC2)oc2c(-c3ccccc3)cccc12` [LY294002, 2-(4-morpholinyl)-8-phenyl-chromone, reference compound], in data set [6], the half-maximal inhibitory concentration (IC50) was found to be 0.32 µM.
